For this experiment, the system named is Venturia inaequalis. Briefly: Combination of pyrimethanil and dodine in controlling apple scab: curative treatment of inoculated apple plants. The experiment is classed as in vivo. To be noted: for Practical efficacy: treated 3 days after inoculation, scored one month after inoculation; for Protection (in words): used alone. On the procedure: Example: Combination of pyrimethanil and dodine in controlling apple scab
The fungicides evaluated are the following:
The fungicidal compositions evaluated are the following:
Apple plants (var. Melrose Golden) at the 5-6-leaf stage are inoculated with an aqueous suspension containing 150 000 spores of Venturia inaequalis/ml of inoculum. The plants are then placed in a climatic cell at 16-18° C., 100% RH (relative humidity) for 3 days. They are then treated with the fungicidal compositions at the doses cited above (12 repeats/dose) in a plant protection mixture at 500 l/ha and are again placed under the conditions described above. One month after the inoculation, scores are awarded. This consists in estimating the diseased leaf surface area in the two leaf stages sensitive to the disease and, by comparing with an untreated contaminated control, in defining the percentage efficacy according to the following formula:
% practical efficacy=100×(% contamination Control−% contamination Trial)/% contamination Control
The theoretical efficacy according to the Colby formula is calculated based on the following formula:
% theoretical efficacy A+B=% practical eff. A+% practical eff. B−(% practical eff. A×% practical eff. B/100)

On to `Cc1cc(C)nc(Nc2ccccc2)n1` [pyrimethanil], for which the “Protection (in words)” value was “partial protection”. Moreover, the Practical efficacy (pyrimethanil 50 g/ha alone, apple plants var. Melrose Golden) was found to be 65.4%. The Practical efficacy (pyrimethanil 100 g/ha alone) worked out at 65.4%. The Practical efficacy (pyrimethanil 200 g/ha alone) was determined as 61.5%.
On to dodecylguanidine monoacetate [dodine], for which the “Protection (in words)” value is reported as “partial protection”. Moreover, the Practical efficacy (dodine 150 g/ha alone) was 30.8%. Also, the Practical efficacy (dodine 300 g/ha alone) was 76.9%. Besides, the Practical efficacy (dodine 600 g/ha alone) turned out to be 75%.

For the origin of these results see patent publication US6462052B1, “Synergistic fungicide and/or bactericide composition” (Rhone-Poulenc Agro, priority 1998, dated 2002).
